Assay results: patent US12678446B2 (PFIZER INC., priority 2020, dated 2026)

Columns and labels:
[1] = system: RSV (RSV A2 ECACC, 0709161v); experiment: RSV plaque reduction assay; format: cell-based, respiratory syncytial virus; settings: human respiratory syncytial virus, HepG2, read-out: RSV A2 Plaque EC50, RSV A2 in Hep-G2 cells; mean of at least two experiments unless noted (n = 1)
How it was run: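 Hep-G2 monolayers infected with 100 PFU/well RSV A2 premixed with eight serial compound dilutions (2 h, 37° C.), then kept 2 days under CMC overlay with compound in DMEM/2% FBS. Plaques immunostained (HRP/TrueBlue) and counted; % infection versus virus control gives EC50, mean of at least two experiments, rounded.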

[2] = cell toxicity CC50; format: cell-based; settings: human; Hep-G2 cells; mean of at least two experiments; read-out: Cell Cytotoxicity CC50

Row | SMILES | EC50 [1] [nM] | CC50 [2] [µM]
1 | C[C@@H]1CCn2nc(-c3cnn(CC(F)(F)F)c3)c(C(=O)N[C@H]3N=C(c4ccccc4)c4cccc(F)c4NC3=O)c2O1 [Example 118, (5R)-N-[(3S)-9-fluoro-2-oxo-5-phenyl-1,3-dihydro-1,4-benzodiazepin-3-yl]-5-methyl-2-[1-(2,2,2-trifluoroethyl)pyrazol-4-yl]-6,7-dihydro-5H-pyrazolo[5,1-b][1,3]oxazine-3-carboxamide] | 43 | > 25
2 | COCCn1cc(-c2nn3c(c2C(=O)N[C@H]2N=C(c4ccccc4)c4cccc(F)c4NC2=O)O[C@H](C)CC3)cn1 [Example 119, (5R)-N-[(3S)-9-fluoro-2-oxo-5-phenyl-1,3-dihydro-1,4-benzodiazepin-3-yl]-2-[1-(2-methoxyethyl)pyrazol-4-yl]-5-methyl-6,7-dihydro-5H-pyrazolo[5,1-b][1,3]oxazine-3-carboxamide] | 69 | > 25
3 | Cc1c(-c2nn3c(c2C(=O)N[C@H]2N=C(c4ccccc4)c4cccc(F)c4NC2=O)O[C@H](C)CC3)cnn1C [Example 121, (5R)-2-(1,5-Dimethylpyrazol-4-yl)-N-[(3S)-9-fluoro-2-oxo-5-phenyl-1,3-dihydro-1,4-benzodiazepin-3-yl]-5-methyl-6,7-dihydro-5H-pyrazolo[5,1-b][1,3]oxazine-3-carboxamide] | 374 | > 25
4 | C[C@@H]1CCn2nc(-c3cnn(CC(C)(C)O)c3)c(C(=O)N[C@H]3N=C(c4ccccc4)c4cccc(F)c4NC3=O)c2O1 [Example 122, (5R)-N-[(3S)-9-fluoro-2-oxo-5-phenyl-1,3-dihydro-1,4-benzodiazepin-3-yl]-2-[1-(2-hydroxy-2-methylpropyl)pyrazol-4-yl]-5-methyl-6,7-dihydro-5H-pyrazolo[5,1-b][1,3]oxazine-3-carboxamide] | 166 | > 25
5 | O=C(N[C@H]1N=C(c2ccccc2)c2cccc(F)c2NC1=O)c1c(-c2ccccc2F)nn2c1OCC(Cn1cccn1)C2 (stereo partly drawn) [Example 124, N-[(3S)-9-fluoro-2-oxo-5-phenyl-1,3-dihydro-1,4-benzodiazepin-3-yl]-2-(2-fluorophenyl)-6-(pyrazol-1-ylmethyl)-6,7-dihydro-5H-pyrazolo[5,1-b][1,3]oxazine-3-carboxamide] | 76 | > 25
6 | C[C@@H]1CCn2nc(-c3cnn(C4CC4)c3)c(C(=O)N[C@H]3N=C(c4ccccc4)c4ccccc4NC3=O)c2O1 [Example 125, (5R)-2-(1-Cyclopropylpyrazol-4-yl)-5-methyl-N-[(3S)-2-oxo-5-phenyl-1,3-dihydro-1,4-benzodiazepin-3-yl]-6,7-dihydro-5H-pyrazolo[5,1-b][1,3]oxazine-3-carboxamide] | 70 | > 25
7 | C[C@@H]1CCn2nc(-c3cnn(C4CC4)c3)c(C(=O)N[C@H]3N=C(c4ccccc4)c4cccc(F)c4NC3=O)c2O1 [Example 126, (5R)-2-(1-Cyclopropylpyrazol-4-yl)-N-[(3S)-9-fluoro-2-oxo-5-phenyl-1,3-dihydro-1,4-benzodiazepin-3-yl]-5-methyl-6,7-dihydro-5H-pyrazolo[5,1-b][1,3]oxazine-3-carboxamide] | 54 | > 25
8 | CCc1ccc(-c2nn3c(c2C(=O)N[C@H]2N=C(c4ccccc4)c4cccc(F)c4NC2=O)O[C@@H](C)CC3)cn1 [Example 127, (5S)-2-(6-Ethylpyridin-3-yl)-N-[(3S)-9-fluoro-2-oxo-5-phenyl-1,3-dihydro-1,4-benzodiazepin-3-yl]-5-methyl-6,7-dihydro-5H-pyrazolo[5,1-b][1,3]oxazine-3-carboxamide] | 41 | > 25
9 | O=C(N[C@H]1N=C(c2ccccc2)c2cccc(F)c2NC1=O)c1c(-c2ccc(F)cc2F)nn2c1OCC(CO)C2 (stereo partly drawn) [Example 128, 2-(2,4-Difluorophenyl)-N-[(3S)-9-fluoro-2-oxo-5-phenyl-1,3-dihydro-1,4-benzodiazepin-3-yl]-6-(hydroxymethyl)-6,7-dihydro-5H-pyrazolo[5,1-b][1,3]oxazine-3-carboxamide] | 41 | > 25
10 | CCn1cc(-c2nn3c(c2C(=O)N[C@H]2N=C(c4ccccc4)c4cccc(F)c4NC2=O)OCC(CO)C3)cn1 (stereo partly drawn) [Example 130, 2-(1-Ethylpyrazol-4-yl)-N-[(3S)-9-fluoro-2-oxo-5-phenyl-1,3-dihydro-1,4-benzodiazepin-3-yl]-6-(hydroxymethyl)-6,7-dihydro-5H-pyrazolo[5,1-b][1,3]oxazine-3-carboxamide] | 350 | > 25
11 | O=C(N[C@H]1N=C(c2ccccc2)c2ccccc2NC1=O)c1c(-c2ccc(F)cc2F)nn2c1OCC(CO)C2 (stereo partly drawn) [Example 131, 2-(2,4-Difluorophenyl)-6-(hydroxymethyl)-N-[(3S)-2-oxo-5-phenyl-1,3-dihydro-1,4-benzodiazepin-3-yl]-6,7-dihydro-5H-pyrazolo[5,1-b][1,3]oxazine-3-carboxamide] | 93 | > 25
12 | CCc1ccc(-c2nn3c(c2C(=O)N[C@H]2N=C(c4ccccc4)c4ccccc4NC2=O)O[C@@H](C)CC3)cn1 [Example 132, (5S)-2-(6-Ethylpyridin-3-yl)-5-methyl-N-[(3S)-2-oxo-5-phenyl-1,3-dihydro-1,4-benzodiazepin-3-yl]-6,7-dihydro-5H-pyrazolo[5,1-b][1,3]oxazine-3-carboxamide] | 72 | > 25
13 | CCc1ccc(-c2nn3c(c2C(=O)N[C@H]2N=C(c4ccccc4)c4cccc(F)c4NC2=O)OCC(CO)C3)cn1 (stereo partly drawn) [Example 133, 2-(6-Ethylpyridin-3-yl)-N-[(3S)-9-fluoro-2-oxo-5-phenyl-1,3-dihydro-1,4-benzodiazepin-3-yl]-6-(hydroxymethyl)-6,7-dihydro-5H-pyrazolo[5,1-b][1,3]oxazine-3-carboxamide] | 220 | > 25
14 | CS(=O)(=O)c1ccc(-c2nn3c(c2C(=O)N[C@H]2N=C(c4ccccc4)c4cccc(F)c4NC2=O)OCCC3)c(F)c1 [Example 135, 2-(2-Fluoro-4-methylsulfonylphenyl)-N-[(3S)-9-fluoro-2-oxo-5-phenyl-1,3-dihydro-1,4-benzodiazepin-3-yl]-6,7-dihydro-5H-pyrazolo[5,1-b][1,3]oxazine-3-carboxamide] | 15 | > 25
15 | O=C(N[C@H]1N=C(c2ccccc2)c2ccccc2NC1=O)c1c(-c2cccnc2F)nn2c1OCCC2 [Example 136, 2-(2-Fluoropyridin-3-yl)-N-[(3S)-2-oxo-5-phenyl-1,3-dihydro-1,4-benzodiazepin-3-yl]-6,7-dihydro-5H-pyrazolo[5,1-b][1,3]oxazine-3-carboxamide] | 182 | > 25
16 | C[C@@H]1CCn2nc(-c3ccc(S(C)(=O)=O)cc3F)c(C(=O)N[C@H]3N=C(c4ccccc4)c4cccc(F)c4NC3=O)c2O1 [Example 137, (5R)-2-(2-Fluoro-4-methylsulfonylphenyl)-N-[(3S)-9-fluoro-2-oxo-5-penyl-1,3-dihydro-1,4-benzodiazepin-3-yl]-5-methyl-6,7-dihydro-5H-pyrazolo[5,1-b][1,3]oxazine-3-carboxamide] | 15 | > 25
17 | N#Cc1ccc(-c2nn3c(c2C(=O)N[C@H]2N=C(c4ccccc4)c4cccc(F)c4NC2=O)OCCC3)c(F)c1 [Example 138, 2-(4-Cyano-2-fluorophenyl)-N-[(3S)-9-fluoro-2-oxo-5-phenyl-1,3-dihydro-1,4-benzodiazepin-3-yl]-6,7-dihydro-5H-pyrazolo[5,1-b][1,3]oxazine-3-carboxamide] | 54 | > 25
18 | COc1cccc(F)c1-c1nn2c(c1C(=O)N[C@H]1N=C(c3ccccc3)c3cccc(F)c3NC1=O)OCCC2 [Example 139, 2-(2-Fluoro-6-methoxyphenyl)-N-[(3S)-9-fluoro-2-oxo-5-phenyl-1,3-dihydro-1,4-benzodiazepin-3-yl]-6,7-dihydro-5H-pyrazolo[5,1-b][1,3]oxazine-3-carboxamide] | 66 | > 25
19 | Cc1cccc(F)c1-c1nn2c(c1C(=O)N[C@H]1N=C(c3ccccc3)c3cccc(F)c3NC1=O)OCCC2 [Example 140, 2-(2-Fluoro-6-methylphenyl)-N-[(3S)-9-fluoro-2-oxo-5-phenyl-1,3-dihydro-1,4-benzodiazepin-3-yl]-6,7-dihydro-5H-pyrazolo[5,1-b][1,3]oxazine-3-carboxamide] | 38 | > 25
20 | C[C@@H]1CCn2nc(-c3ccc(S(C)(=O)=O)cc3F)c(C(=O)N[C@H]3N=C(c4ccccc4)c4ccccc4NC3=O)c2O1 [Example 141, (5R)-2-(2-Fluoro-4-methylsulfonylphenyl)-5-methyl-N-[(3S)-2-oxo-5-phenyl-1,3-dihydro-1,4-benzodiazepin-3-yl]-6,7-dihydro-5H-pyrazolo[5,1-b][1,3]oxazine-3-carboxamide] | 20 | > 25
21 | NC(=O)c1ccc(-c2nn3c(c2C(=O)N[C@H]2N=C(c4ccccc4)c4cccc(F)c4NC2=O)OCCC3)c(F)c1 [Example 142, 2-(4-Carbamoyl-2-fluorophenyl)-N-[(3S)-9-fluoro-2-oxo-5-phenyl-1,3-dihydro-1,4-benzodiazepin-3-yl]-6,7-dihydro-5H-pyrazolo[5,1-b][1,3]oxazine-3-carboxamide] | 282 | > 25
22 | CS(=N)(=O)c1ccc(-c2nn3c(c2C(=O)N[C@H]2N=C(c4ccccc4)c4cccc(F)c4NC2=O)OCCC3)c(F)c1 (stereo partly drawn) [Example 143, 2-[2-Fluoro-4-(methylsulfonimidoyl)phenyl]-N-[(3S)-9-fluoro-2-oxo-5-phenyl-1,3-dihydro-1,4-benzodiazepin-3-yl]-6,7-dihydro-5H-pyrazolo[5,1-b][1,3]oxazine-3-carboxamide] | 149 | > 25
